According to US6387934B1, “2-Cyano-3,5-dihydroxyhex-2-enecarboxamide derivatives” (Aventis Pharma Deutschland GmbH, priority 1996, dated 2002):
Where a name gives a salt, the structure may show the parent alone.

Tests used:
[1] = test system: IL-1-induced chondrocytic chondrolysis; assay: Modulation of the IL-1-induced chondrocytic chondrolysis (chondrolysis compensation); format: cell-based, bulls; conditions: stimulation factor = proteoglycan content with active compound / IL-1-treated control; interleukin-1 for 8 days, 35S-sulfate incorporation 24 hours; factor >1 = stimulation
Method: (§1) Cartilage cells can maintain their characteristic cartilage matrix metabolism ex vivo in suitable cell or tissue culture, i.e. the controlled synthesis and degradation of the matrix macromolecules, over a period of several weeks to months. These processes can be chemically influenced. […] In both assays, the stimulating action of the test substance is expressed by a stimulation factor which is calculated from the quotient of the specific proteoglycan content under the active compound condition divided by the proteoglycan content under the control condition. In Experiment A, the control condition is the untreated control group and in experimental procedure B this is the interleukin-1 (IL-1)-treated control group. A factor=1 can thus identify no action, a factor of >1 points to a stimulation and a factor of <1 to an inhibitory action.
B) Modulation of the IL-1-induced Chondrocytic Chondrolysis (Chondrolysis Compensation)
Cell preparation was carried out as described under A), if cartilage tissue explants are used these are added directly to the enriched culture medium described above after stamping out cartilage disks of 4 mm diameter and a depth which includes the entire cartilage layer. After adaptation for 5 days, interleukin-1 is added to the medium, 8 units/well for the cell culture, 20 units/well for the tissue culture, and, over the treatment period of 8 days, likewise added again every second day on changing the medium. At the end of the experiments, 1 μCi of Na2^35SO4/well is added and the mixture is incubated for 24 hours. After removing the supernatant, the remaining gels or explants are broken down in the microtiter plates by repeated deepfreezing and thawing and extracted with 8 M guanidine hydrochloride. After centrifugation, the supernatant is separated on a PD10 Sephadex column into free and incorporated sulfate and the radioactivity of the samples, which is a measure of the amount of proteoglycan newly formed, is determined in a β counter.

[2] = test system: chondrocytic proteoglycan metabolism; assay: Modulation of the chondrocytic proteoglycan metabolism (PG stimulation); format: cell-based, bulls; conditions: stimulation factor = proteoglycan content with active compound / untreated control, 10 μm test substance, 8 days, chondrocytes in agarose, Alcian Blue extinction at 610 nm, factor >1 = stimulation; for fold induction at 10 µM: Chondrocyte, 192 h
Method: as §1
A) Modulation of the chondrocytic proteoglycan metabolism (PG stimulation)
Cartilage samples are taken under sterile conditions from fetlock joints of freshly slaughtered bulls, incubated with 1% strength pronase (Boehringer) solution in Ham's F12 medium (Serva) at 37° C. for 1 hour, and the enzyme solution is replaced by a 0.025% strength collagenase type A (Worthington) solution in medium and incubated overnight. After filtering through a 50 μm nylon filter, centrifugation, resuspension and vitality testing, a cell suspension of 4×10^6 cells/ml of medium, enriched with 20% fetal calf serum, is prepared and mixed at approximately 38° C. with 2% strength low-melting agarose (Seplaque) in the ratio 1:1 and 0.1 ml of this is pipetted into each well of a 24 well microtiter plate. After gelling, the samples are covered with a layer of 0.5 ml/well of medium, which is enriched with 5% serum, 25 μm/ml of ascorbic acid, and in groups of up to 6-8 wells with 10 μm of the test substance. The medium in a constant composition is renewed every second day for a treatment period of 8 days. At the end of the treatment, washing is carried out with medium, 1 ml of a buffered (pH 5.6) 1% strength Alcian Blue (Sigma) solution, enriched with 25% strength glutaraldehyde in the ratio 7:1, per well is added and the mixture is incubated for 48 hours. After washing and differentiating with 3% strength acetic acid, dehydration is carried out up to 70% strength ethanol content by means of the rising alcohol series, and then the bound dye is extracted at 4° C. for 24 hours using 8 M guanidine hydrochloride. The stoichiometric binding of the Alcian Blue to the chondroitin sulfate side chains of the proteoglycans allows a quantification of the enriched matrix via the determination of the extinction of the dye solution at 610 nm.

| SMILES | melting point | Chondrolysis compensation [1] | fold induction at 10 µM [2] | PG stimulation [2] |
| --- | --- | --- | --- | --- |
| CC(C)(O)C/C(O)=C(\C#N)C(=O)Nc1ccc(C(F)(F)F)cc1 [Example 2] | 155 °C | 1.9 | 1.8 | – |
| N#C/C(C(=O)Nc1ccc(C(F)(F)F)cc1)=C(/O)CC(O)c1cccs1 (centres unmarked) [Example 24] | – | 1.9 | – | – |
| N#C/C(C(=O)Nc1ccc(C(F)(F)F)cc1)=C(/O)CC(=O)O [Example 36] | – | 1.8 | – | – |
| C[C@H](O)C/C(O)=C(\C#N)C(=O)Nc1ccc(C(F)(F)F)cc1 [Example 10b, N-(4-Trifluormethylphenyl)-2-cyano-3,5-dihydroxyhex-2-enecarboxamide Lysinium Salt, S-isomer] | – | 1.7 | – | – |
| CCCCC(C)(O)C/C(O)=C(\C#N)C(=O)Nc1ccc(C(F)(F)F)cc1 (centres unmarked) [Example 31] | – | 1.6 | – | – |
| CC(C)(O)C/C(O)=C(\C#N)C(=O)NCc1ccccc1 [Example 3] | – | 1.5 | – | – |
| C[C@@H](O)C/C(O)=C(\C#N)C(=O)Nc1ccc(C(F)(F)F)cc1 [Example 10a, N-(4-Trifluoromethylphenyl)-2-cyano-3,5-dihydroxyhex-2-enecarboxamide Lysinium Salt, R Isomer] | – | 1.1 | – | – |
| N#C/C(C(=O)Nc1ccc(C(F)(F)F)cc1)=C(/O)CC(O)c1ccco1 (centres unmarked) [Example 22] | – | 1.9 | 1.1 | – |
| CC(O)C/C(O)=C(\C#N)C(=O)NCc1ccccc1 (centres unmarked) [Example 6] | – | 1.9 | – | – |
| CC(O)(C/C(O)=C(\C#N)C(=O)Nc1ccc(C(F)(F)F)cc1)C1CC1 (centres unmarked) [Example 32] | – | 1.8 | 1.1 | – |
| CC(O)C/C(O)=C(\C#N)C(=O)Nc1ccc(C(F)(F)F)cc1 (centres unmarked) [Example 37, N-(4-Trifluoromethylphenyl)-2-cyano-3,5-dihydroxyhex-2-carboxamide Lysinium Salt] | – | 1.9 | – | 1.1 |
| N#C/C(C(=O)Nc1ccc(C(F)(F)F)cc1)=C(/O)CC(O)C1CC1 (centres unmarked) [Example 33] | – | 1.9 | – | – |
| C=C(C)C(O)C/C(O)=C(\C#N)C(=O)Nc1ccc(C(F)(F)F)cc1 (centres unmarked) [Example 28] | – | – | 1.1 | – |
| N#C/C(C(=O)Nc1ccc(C(F)(F)F)cc1)=C(/O)CC(O)c1ccc2c(c1)OCO2 (centres unmarked) [Example 19] | – | 1.3 | 1.1 | – |
| CC(C)=CC(O)C/C(O)=C(\C#N)C(=O)Nc1ccc(C(F)(F)F)cc1 (centres unmarked) [Example 29] | – | 1.7 | 1.1 | – |
| N#C/C(C(=O)Nc1ccc(C(F)(F)F)cc1)=C(/O)CC(O)c1ccc(OCc2ccccc2)cc1 (centres unmarked) [Example 15] | – | 1.2 | – | – |
| CC(O)C/C(O)=C(\C#N)C(=O)Nc1ccc(C(F)(F)F)cc1 (centres unmarked) [Example 9] | – | 1.6 | 1.5 | – |
| CC(C)(O)C/C(O)=C(\C#N)C(=O)Nc1ccccc1 [Example 1, N-(Phenyl)-2-cyano-3,5-dihydroxy-5-methylhex-2-enecarboxamide] | 103 °C | 1.4 | – | – |

Second part, led by results:

| melting point | SMILES | Chondrolysis compensation [1] | fold induction at 10 µM [2] | PG stimulation [2] |
| --- | --- | --- | --- | --- |
| 145 to 148 °C | CC(C)(O)C/C(O)=C(\C#N)C(=O)Nc1ccc(C(F)(F)F)cc1 [Example 38] | 1.8 | – | – |
| 156 °C | C[C@@H](O)C/C(O)=C(\C#N)C(=O)Nc1ccc(C(F)(F)F)cc1 (as salt: salt) [Example 10a, N-(4-Trifluoromethylphenyl)-2-cyano-3,5-dihydroxyhex-2-enecarboxamide Lysinium Salt, R Isomer] | – | – | – |
| 170 to 171 °C | Cc1ccc(C(O)C/C(O)=C(\C#N)C(=O)Nc2ccc(C(F)(F)F)cc2)cc1 (centres unmarked) [Example 11] | – | – | – |
| 168 °C | N#C/C(C(=O)Nc1ccc(C(F)(F)F)cc1)=C(/O)CC(O)C#Cc1ccccc1 (centres unmarked) [Example 26] | 1.9 | – | – |
| 101 °C | CC(O)C/C(O)=C(\C#N)C(=O)Nc1ccccc1 (centres unmarked) [Example 5] | 1.8 | – | – |
| 152 °C | CC(O)C/C(O)=C(\C#N)C(=O)Nc1ccc(Cl)cc1 (centres unmarked) [Example 8] | 2.1 | – | – |
| 157 °C | C[C@H](O)C/C(O)=C(\C#N)C(=O)Nc1ccc(C(F)(F)F)cc1 (as salt: salt) [Example 10b, N-(4-Trifluormethylphenyl)-2-cyano-3,5-dihydroxyhex-2-enecarboxamide Lysinium Salt, S-isomer] | – | – | – |
| 203 °C | N#C/C(C(=O)Nc1ccc(C(F)(F)F)cc1)=C(/O)CC(O)c1ccncc1 (centres unmarked) [Example 20] | – | – | – |
| 178 °C | N#C/C(C(=O)Nc1ccc(Cl)cc1)=C(/O)CC(O)c1ccccc1 (centres unmarked) [Example 12] | – | – | – |
| 91 °C | CC(O)C/C(O)=C(\C#N)C(=O)NCCc1ccccc1 (centres unmarked) [Example 7] | 1.3 | – | – |
| 178 °C | N#C/C(C(=O)Nc1ccc(C(F)(F)F)cc1)=C(/O)CC(O)c1ccc(C(F)(F)F)cc1 (centres unmarked) [Example 17] | – | – | – |
| 180 °C | N#C/C(C(=O)Nc1ccc(C(F)(F)F)cc1)=C(/O)CC(O)c1ccc(C#N)cc1 (centres unmarked) [Example 16] | 1.1 | – | – |
| 133 to 135 °C | C=CC(O)C/C(O)=C(\C#N)C(=O)Nc1ccc(C(F)(F)F)cc1 (centres unmarked) [Example 39] | 1.6 | – | 1.7 |
| 146 °C | N#C/C(C(=O)Nc1ccc(C(F)(F)F)cc1)=C(/O)CC(O)c1ccoc1 (centres unmarked) [Example 23] | 1.9 | – | – |
| 165 °C | Cc1cc(NC(=O)/C(C#N)=C(\O)CC(O)c2ccccc2)ccc1Cl (centres unmarked) [Example 13] | 1.1 | – | – |
| 154 °C | COc1cc(C(O)C/C(O)=C(\C#N)C(=O)Nc2ccc(C(F)(F)F)cc2)cc(OC)c1OC (centres unmarked) [Example 18] | 1.2 | 1.1 | – |
| 81 °C | CC(C)(O)C/C(O)=C(\C#N)C(=O)NCCc1ccccc1 [Example 4] | 1.5 | – | – |
| 203 °C | N#C/C(C(=O)Nc1ccc(C(F)(F)F)cc1)=C(/O)CC(O)c1cccnc1 (centres unmarked) [Example 21] | 1.3 | 1.2 | – |
| 135 to 138 °C | CC(O)C/C(O)=C(\C#N)C(=O)Nc1ccc(C(F)(F)F)cc1 (centres unmarked) (as salt: salt) [Example 37, N-(4-Trifluoromethylphenyl)-2-cyano-3,5-dihydroxyhex-2-carboxamide Lysinium Salt] | – | – | – |
| 180 °C | Cc1ccc(C(O)C/C(O)=C(\C#N)C(=O)Nc2ccc(C(F)(F)F)cc2)cc1 (centres unmarked) [Example 14] | – | – | – |
| 168 to 172 °C | N#C/C(C(=O)Nc1ccc(C(F)(F)F)cc1)=C(/O)CC(O)/C=C/c1ccccc1 (centres unmarked) [Example 25] | – | – | – |
| 141 °C | C=CC(O)C/C(O)=C(\C#N)C(=O)Nc1ccc(C(F)(F)F)cc1 (centres unmarked) [Example 27] | 1.6 | 1.7 | – |
| 114 to 116 °C | CC(C)=CCC/C(C)=C/C(O)C/C(O)=C(\C#N)C(=O)Nc1ccc(C(F)(F)F)cc1 (centres unmarked) [Example 30] | 1.3 | – | – |
